Like-named read-outs stand apart in the source and are kept apart here.
Legend:
[1] = target: T1, mPGES-1 (Homo sapiens, UniProt O14684); conditions: background, cited from earlier work
T1 sequence (O14684 1-152): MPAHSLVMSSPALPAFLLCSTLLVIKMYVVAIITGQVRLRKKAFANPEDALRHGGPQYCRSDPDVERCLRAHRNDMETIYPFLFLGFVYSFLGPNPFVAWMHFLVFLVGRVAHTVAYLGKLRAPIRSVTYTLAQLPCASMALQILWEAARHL

[2] = target: T1, mPGES-1; test: mPGES-1 enzyme activity assay (PGE2 enzyme immunoassay), human enzyme; type: biochemical; design: made in house; host or cells: FreeStyle 293-F cells, crude microsomal preparation; conditions: for IC50: recombinant microsomal enzyme, means ± SD, triplicate
How it was run: (§1)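 Crude microsomal enzyme from transfected FreeStyle 293-F cells, preincubated 15 min at room temperature with compound in phosphate pH 7.2 with GSH. Reaction started with 1 μM PGH2, stopped after 30 s with SnCl2; non-enzymatic background without enzyme. PGE2 by enzyme immunoassay; IC50 computed.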

[3] = target: T2, mPGES-1 Mouse enzyme (Mus musculus, UniProt Q9JM51); test: mPGES-1 enzyme activity assay (PGE2 enzyme immunoassay), mouse enzyme; type: biochemical; conditions: for inhibition at 10 µM: compound at a concentration of 10 μM, read-out: % inhibition of the compound against mPGES-1, Mouse enzyme; for IC50: recombinant microsomal enzyme, means ± SD, triplicate
T2 construct: made in house; host or cells: FreeStyle 293-F cells, crude microsomal preparation
T2 sequence (Q9JM51 1-153): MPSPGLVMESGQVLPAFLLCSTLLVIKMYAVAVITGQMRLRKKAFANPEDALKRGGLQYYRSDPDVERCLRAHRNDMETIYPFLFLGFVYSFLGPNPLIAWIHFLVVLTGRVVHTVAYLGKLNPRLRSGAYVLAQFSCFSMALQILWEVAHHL
How it was run: as §1

[4] = read-out: IC50 against mPGES-1, Human enzyme

Structure (SMILES): CSc1ccc(/C=C2/C(C)=C(CC(=O)O)c3cc(F)ccc32)cc1
- IC50 ([1]; literature refs 20-22, read-out: IC50 for inhibition of mPGES-1): 80000 nM

Structure (SMILES): O=C(CCCN1C(=O)C=CC1=O)Nc1ccc(OCCCC2CCCCC2)cc1 [III-03]
- inhibition at 10 µM ([2]; compound at a concentration of 10 μM, read-out: % inhibition of the compound against mPGES-1, Human enzyme): 63%
- inhibition at 10 µM [3]: 55%

Structure (SMILES): CCCCCCCOc1ccc(C=C(C#N)C#N)cc1[N+](=O)[O-] [Compound V-05]
- IC50 [2, 4]: 135 ± 16 nM
- IC50 ([3]; read-out: IC50 against mPGES-1, Mouse enzyme): 776 ± 217 nM

Structure (SMILES): CCCCC/C=C\C\C=C/C=C/C=C/[C@@H](SC[C@H](NC(=O)CC[C@H](N)C(=O)O)C(=O)NCC(=O)O)[C@@H](O)CCCC(=O)O [Leukotriene C4]
- IC50 for inhibition of mPGES-1 (in words) ([1]; literature ref 20, probably competing with glutathione): micromolar

Structure (SMILES): CCCCCCCCOc1ccc(-c2nn(-c3ccc(Cl)cc3)cc2C=C2C(=O)NC(=O)NC2=O)cc1 [VI-06]
- IC50 [2, 4]: 361 ± 51 nM
- IC50 ([3]; IC50 against mPGES-1, Mouse enzyme): 740 ± 108 nM

Structure (SMILES): O=C1NC(=O)C(=Cc2cc(Br)ccc2OCCCCC2CCCCC2)C(=O)N1 [Compound I-14]
- IC50 ([2]; IC50 against mPGES-1, Human enzyme): 96 ± 14 nM
- inhibition at 10 µM [3]: 38%

From patent publication US12030877B2, “Prostaglandin E synthase inhibitors and methods for utilizing the same” (University of Kentucky Research Foundation, priority 2016, dated 2024)
